The values that follow come from US4307108A, “Method for lowering sorbitol levels using spiro-imides” (Pfizer Inc., priority 1979, dated 1981).

Counter-ions that a name gives are not always drawn.

Data set [1] relates to sorbitol accumulation in the sciatic nerve of streptozotocinized (i.e., diabetic) rats. Kind of data set: reduction/inhibition of sorbitol accumulation in the sciatic nerve of acutely streptozotocinized (diabetic) rats. Type of data set: in vivo. The following applies: for Percent Inhibition (%): oral, 4, 8 and 24 hours after streptozotocin, sorbitol in sciatic nerve measured 27 hours after induction of diabetes, vs. untreated animal. The procedure:
The activity of the compounds of the present invention, as agents for the control of chronic diabetic complications, is determined by their ability to successfully pass one or more of the following standard biological and/or pharmacological tests, viz., (1) measuring their ability to reduce or inhibit sorbitol accumulation in the sciatic nerve of acutely streptozotocinized (i.e., diabetic) rats; (2) measuring their ability to reverse already-elevated sorbitol levels in the sciatic nerve and lens of chronic streptozotocin-induced diabetic rats; (3) measuring their ability to prevent or inhibit galactitol formation in the lens of acutely galactosemic rats, and (4) measuring their ability to delay cataract formation and reduce the severity of lens opacities in chronic galactosemic rats.
The following spiro-imide compounds of Preparation C and Examples 1-5, respectively, were tested for their ability to reduce or inhibit sorbitol accumulation in the sciatic nerve of streptozotocinized (i.e., diabetic) rats essentially by the procedure described in U.S. Pat. No. 3,821,383. In the present study, the amount of sorbitol accumulation in the sciatic nerves was measured 27 hours after induction of diabetes. The compounds were administered orally at the dose levels indicated 4, 8 and 24 hours following the administration of streptozotocin. The results obtained in this manner are presented below in terms of percent inhibition (%) afforded by the test compound as compared to the case where no compound was administered (i.e., the untreated animal where sorbitol levels normally rise from approximately […]. tissue to as high as […]. tissue in the 27-hour test period): […]

Data set [2] is described as follows: toxic side effects in diabetic rats on oral administration. Type of data set: in vivo. As to conditions: dose level as low as 2.5 mg./kg. The source says:
As previously indicated, the spiro-imide compounds of this invention reduce lens sorbitol levels in diabetic subjects. […] The other compounds of this invention also cause similar results. Furthermore, the herein described compounds can be administered by either the oral or parenteral routes of administration without causing any significant untoward pharmacological side reactions in the subjects to whom they are so administered. These compounds are ordinarily administered in dosages ranging from about 0.25 mg. to about 25 mg. per kg. of body weight per day, although variations will necessarily occur depending upon the actual condition of the subject being treated and the particular route of administration chosen.

The nature of data set [3]: water solubility of salt. As to conditions: sodium salt, amorphous powder, freeze-dried. It counts as physicochemical.

`O=C1CCC2(CCCc3ccccc32)C(=O)N1` (stereo not drawn) [Product of Ex. 5, 3,4-dihydro-spiro-[2H-naphthalene-1,3'-piperidine]-2',6'-dione]: the “Percent Inhibition (%)” value in data set [1] (25 mg./kg.) is 23%.
For `O=C1CC2(CCCc3ccccc32)C(=O)N1` (stereo not drawn) [Product of Prep. C, 3,4-dihydro-spiro-[2H-naphthalene-1,3'-pyrrolidine]-2',5'-dione], the “Percent Inhibition (%)” value in data set [1] (5.0 mg./kg.) came to 46%.
Same read-out and setting: under `O=C1CC2(CCOc3ccc(Cl)cc32)C(=O)N1` (stereo not drawn) [Product of Ex. 2, 6-chloro-2,3-dihydro-spiro-[4H-1-benzopyran-4,3'-pyrrolidine]-2',5'-dione] stands 13%.
For the compound `O=C1CC2(CCc3ccccc32)C(=O)N1` (stereo not drawn) [Product of Ex. 1, 2,3-dihydro-spiro-[1H-indene-1,3'-pyrrolidine]-2',5'-dione], the “Percent Inhibition (%)” value in data set [1] (2.5 mg./kg.) was determined as 28%. Besides, the “inhibit the formation of sorbitol levels in the sciatic nerve of diabetic rats” value in data set [1] (oral, dose level as low as 2.5 mg./kg., result in words) is given as “to a significant degree”. The “substantial signs of toxic side effects” value in data set [2] was “without showing any substantial signs of toxic side effects”.
Take `O=C1CC2(CCCc3sccc32)C(=O)N1` (stereo not drawn) [Product of Ex. 4, 6,7-dihydro-spiro-[5H-benzo(b)thiophene-4,3'-pyrrolidine]-2',5'-dione]: the “Percent Inhibition (%)” value in data set [1] (25 mg./kg.) was 51%.
With `O=C1CC2(CCc3ccccc32)C(=O)N1` (stereo not drawn) [sodium salt of 3,4-dihydro-spiro-[1H-indene-1,3'-pyrrolidino]-2',5'-dione], the solubility in water result in data set [3] is “freely-soluble in water”.
With `O=C1CC2(Cc3ccccc3C2)C(=O)N1` [Product of Ex. 3, 2,3-dihydro-spiro-[1H-indene-2,3'-pyrrolidine]-2',5'-dione], the “Percent Inhibition (%)” value in data set [1] (25 mg./kg.) is 33%.
